Where two headings read alike, the source gives them in different places. Some results are limits rather than exact numbers.

A short description of data set [1]: Single dose PK after 1 mg/kg intravenous dosing to rat. The format is in vivo, Male Wister-Han Rats. The settings on record: IV 1 mpk. On the procedure: The single dose PK in Male Wister-Han Rats was performed to assess pharmacokinetic properties of tested compounds. Two groups of animals were dosed via bolus intravenous (IV) of the respective compound. Blood samples (approximately 20 μL) were collected via Jugular vein or an alternate site at 5 min, 15 min, 30 min, 1 hr, 2 hr, 4 hr, 7 hr and 24 hr post-dose for IV group. Blood samples were placed into tubes containing EDTA-K2 anticoagulant and centrifuged at 5000 rpm for 6 min at 4° C. to separate plasma from the samples. Following centrifugation, the resulting plasma was transferred to clean tubes for bioanalysis on LC/MS/MS. The pharmacokinetic parameters were calculated using non-compartmental module of WinNonlin® Professional 6.2. […] Therefore, compounds of present invention potentially could lead to less dose frequency and lower dose in clinical application.

In data set [2] the target is human TLR8 (Homo sapiens (Human), UniProt Q9NR97). Put plainly: HEK-Blue-hTLR8 cells assay and selectivity index. The settings on record: EC50(TLR8) value/EC50(TLR7) value. In kind it is cell-based.
Setting [3] is: male, Wistar-Han, plasma, iv, 1 mg/kg, 0.083 h.
Setting [4] is: male, Wistar-Han, plasma, iv, 1 mg/kg, 0.25 h.
[5] abbreviates: male, Wistar-Han, plasma, iv, 1 mg/kg, 0.5 h.
Where [6] appears, read: male, Wistar-Han, plasma, iv, 1 mg/kg, 1 h.
[7] abbreviates: male, Wistar-Han, plasma, iv, 1 mg/kg, 2 h.
The mark [8] stands for this setting: male, Wistar-Han, plasma, iv, 1 mg/kg, 4 h.
Setting [9] is: 7 hrs (row printed 8**), read-out: Mean plasma concentration.

Sequence of human TLR8 (Q9NR97 27-1041): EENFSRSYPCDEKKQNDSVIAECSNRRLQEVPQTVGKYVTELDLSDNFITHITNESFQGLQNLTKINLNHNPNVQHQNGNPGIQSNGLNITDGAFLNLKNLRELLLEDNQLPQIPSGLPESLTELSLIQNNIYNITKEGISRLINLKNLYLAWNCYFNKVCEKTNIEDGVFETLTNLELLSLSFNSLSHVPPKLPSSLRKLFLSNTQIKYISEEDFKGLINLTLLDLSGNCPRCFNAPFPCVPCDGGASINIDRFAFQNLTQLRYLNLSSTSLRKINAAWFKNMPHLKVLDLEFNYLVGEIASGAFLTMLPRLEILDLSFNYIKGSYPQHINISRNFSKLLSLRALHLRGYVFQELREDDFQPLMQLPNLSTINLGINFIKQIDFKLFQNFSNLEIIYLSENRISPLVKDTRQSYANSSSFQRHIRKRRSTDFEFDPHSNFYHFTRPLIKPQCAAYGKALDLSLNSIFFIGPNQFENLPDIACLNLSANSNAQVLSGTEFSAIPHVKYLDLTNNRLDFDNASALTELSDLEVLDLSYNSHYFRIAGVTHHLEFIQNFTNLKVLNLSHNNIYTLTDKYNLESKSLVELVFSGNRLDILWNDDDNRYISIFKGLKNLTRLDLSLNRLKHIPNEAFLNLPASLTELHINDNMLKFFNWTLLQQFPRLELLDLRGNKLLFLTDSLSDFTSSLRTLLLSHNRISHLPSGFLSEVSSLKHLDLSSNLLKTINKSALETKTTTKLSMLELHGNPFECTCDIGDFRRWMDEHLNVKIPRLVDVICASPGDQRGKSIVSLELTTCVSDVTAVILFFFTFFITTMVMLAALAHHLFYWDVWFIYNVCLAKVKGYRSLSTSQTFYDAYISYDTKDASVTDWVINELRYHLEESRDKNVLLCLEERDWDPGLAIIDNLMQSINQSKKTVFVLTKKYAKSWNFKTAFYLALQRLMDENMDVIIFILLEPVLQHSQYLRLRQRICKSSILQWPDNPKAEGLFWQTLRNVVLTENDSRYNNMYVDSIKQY

Regarding `CCS(=N)(=O)c1nc(N)c2[nH]c(=O)n(Cc3ccc(C)cc3)c2n1` (single isomer, unassigned) [Example 71-A, 6-Amino-2-(ethylsulfonimidoyl)-9-(p-tolylmethyl)-7H-purin-8-one], the “CO” value in data set [1] is 1848 nM. Besides, in data set [1] (setting [3]), the concentration at 0.083 h came to 1850 nM. This molecule also had a concentration at 0.25 h in data set [1] (setting [4]) of 1000 nM. The molecule further gave a concentration at 0.5 h in data set [1] (setting [5]) of 537 nM. The concentration at 1 h in data set [1] (setting [6]) worked out at 292 nM. Moreover, the concentration at 2 h in data set [1] (setting [7]) was determined as 115 nM. The concentration at 4 h in data set [1] (setting [8]) is 18.2 nM.

With `CCS(=N)(=O)c1nc(N)c2[nH]c(=O)n(Cc3ccc(Cl)cc3)c2n1` (single isomer, unassigned) [Example 70-B, 6-Amino-9-[(4-chlorophenyl)methyl]-2-(ethylsulfonimidoyl)-7H-purin-8-one], the “AUC0-inf” value in data set [1] came to 1.894 µM·h. In addition, in data set [1], the “CL” value is recorded as 48.7 mL/min/kg. In addition, the “CO” value in data set [1] turned out to be 2782 nM. Further, the concentration at 4 h in data set [1] (0.083 h, read-out: Mean plasma concentration) was 2782 nM; in data set [1] (0.25 h, read-out: Mean plasma concentration) it was 1434 nM; in data set [1] (0.5 h, read-out: Mean plasma concentration), 862 nM; in data set [1] (1 h, read-out: Mean plasma concentration) it was 461 nM; in data set [1] (2 h, read-out: Mean plasma concentration), 173 nM; in data set [1] (4 h, read-out: Mean plasma concentration), 29.1 nM. For the same molecule, the concentration at 4 h in data set [1] (setting [9]) is reported as 16.7 nM.

Consider `CCS(=N)(=O)c1nc(N)c2[nH]c(=O)n(Cc3ccc(Cl)cc3)c2n1` (single isomer, unassigned) [Example 70-A, 6-Amino-9-[(4-chlorophenyl)methyl]-2-(ethylsulfonimidoyl)-7H-purin-8-one], for which the “CO” value in data set [1] was found to be 3052 nM. Besides, the concentration at 4 h is 6.28 nM in data set [1] (setting [9]) and 20.5 nM in data set [1] (setting [8]). The concentration at 0.083 h in data set [1] (setting [3]) was found to be 3050 nM. This molecule yielded a concentration at 0.25 h in data set [1] (setting [4]) of 1340 nM. This molecule also registered a concentration at 0.5 h in data set [1] (setting [5]) of 718 nM. In addition, in data set [1] (setting [6]), the concentration at 1 h was 354 nM. The molecule also returned a concentration at 2 h in data set [1] (setting [7]) of 110 nM. This molecule gave a Selective index in data set [2] of over 18518.

Source of the values: US9708325B2, “Sulfonimidoylpurinone compounds and derivatives for the treatment and prophylaxis of virus infection” (Hoffmann-La Roche Inc., priority 2015, dated 2017).
